Measurements published in patent US20260374766A1, “METHODS FOR TREATING CANCER” (Antares Therapeutics, Inc., priority 2022, published 2026).
Structures can show the parent of a compound that is named as a salt. Where two headings read alike, the source gives them in different places.

What was measured:
p53 Y220C = p53 Y220C (Homo sapiens, UniProt P04637, Y220C); test: Luciferase Reporter Assay (Luc), p53 response element, NClH1299 cells with inducible p53 Y220C; assay type: cell-based; conditions: luciferase reporter, NClH1299 inducible p53 Y220C, 6 hour; for AC50: read-out: Luc P53 Y220C AC50
Outline: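 Luminescence readout (One-Glo, 5 min shaking at RT, read at once) after 6 h compound exposure; cells pre-induced 24 h with 0.5 ug/mL doxycycline, 5,000/well.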

NUGC3 p53 Y220C = test: Cell Proliferation Assay (CellTiter-Glo, CTG), NUGC3 p53 Y220C; assay type: cell-based; conditions: Homo sapiens, NUGC-3, 120 h, CellTiter-Glo, 5 days
Outline: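 Tet-One inducible p53 Y220C or R273H constructs were stably introduced into NCI-H1299 by lentiviral transduction; NUGC3 was used as is. Cells (250-500 per well) were exposed to compound for 5 days, then CellTiter-Glo was added for 10 min at room temperature and IC50 was calculated from luminescence.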

H1299 p53 Y220C = test: Cell Proliferation Assay (CellTiter-Glo, CTG), H1299 p53 Y220C (NClH1299-inducible p53 Y220C); assay type: cell-based; conditions: Homo sapiens, NCI-H1299, 120 h, CellTiter-Glo, 5 days
Outline: (§1)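 NClH1299 lines stably transduced with Tet-inducible p53 Y220C or R273H, plus NUGC3, were treated with compound for 5 days at 250-500 cells/well. IC50 derived from CellTiter-Glo luminescent signal after 10 min room-temperature incubation.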

[1] = target: T1, p53 Y220C mutant protein (amino acid residues 94-293) (Homo sapiens, UniProt P04637, Y220C); test: Surface Plasmon Resonance (SPR) assay, Kd_kinetic; assay type: binding; conditions: SPR, p53 Y220C, read-out: SPR P53 Y220C KD kinetic
T1 construct: p53 Y220C mutant protein (amino acid residues 94-293)
Outline: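 Biacore 8K SPR; 16 or 20 °C; Tris 50 mM pH 7.5, NaCl 100 mM, DTT 1 mM, Brij35 0.01%, Tween-20 0.05%, DMSO 1%. Kd_kinetic by 1:1 fit.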

H1299 p53 R273H = test: Cell Proliferation Assay (CellTiter-Glo, CTG), H1299 p53 R273H (NClH1299-inducible p53 R273H); assay type: cell-based; conditions: Homo sapiens, NCI-H1299, 120 h, CellTiter-Glo, 5 days
Outline: as §1

[2] = target: T1, p53 Y220C mutant protein (amino acid residues 94-293); test: Thermal Shift Assay (TSA), dTM; assay type: binding; conditions: for ΔTm at 100 µM: 100 uM compound, read-out: TSA P53 Y220C dTM (100 uM); for ΔTm at 10 µM: 10 uM compound
Experimental: Thermal Shift Assay (TSA) Protocol
5 μM recombinant p53 Y220C mutant protein (amino acid residues 94-293) was incubated with 10 μM or 100 μM compound for 3 hours at 20 °C in buffer containing 20 mM HEPES, pH7.4, 100 mM NaCl, 0.01% Pluronic F-127, and 1% DMSO in the presence of 400-fold diluted Sypro Orange (ThermoFisher Scientific catalog number 4461146), on a 384-well PCR plate (Applied Biosystems catalog number 4483285). The volume was 5 μL/well. The sealed plate was then loaded onto a QuantStudio 7 Flex instrument for melting temperature (TM) measurement. The temperature was increased from 30 °C to […], at a rate of 0.03 °C/second. Data were fit into a Boltzmann two-state model to determine the TM.

[3] = 10 uM tool compound as positive control
[4] = NClH1299-inducible p53 Y220C cells
[5] = NClH1299-inducible p53 R273H cells
[6] = p53 Y220C, read-out: TSA P53 Y220C dTM
[7] = thermal shift, read-out: TSA P53 Y220C dTM (10 uM)

Row | Emax (p53 Y220C; [3]) [%] | AC50 (p53 Y220C) [nM] | IC50 (H1299 p53 Y220C; H1299 p53 Y220C) [nM] | Kd ([1]; kinetic KD) [nM] | IC50 (H1299 p53 R273H; H1299 p53 R273H) [nM] | ΔTm at 100 µM ([2]; thermal shift) [°C] | AC50 (p53 Y220C; AC50) [nM] | Emax (p53 Y220C; Emax) [%] | IC50 (H1299 p53 Y220C; [4]) [nM] | Kd [1] [nM] | IC50 (H1299 p53 R273H; [5]) [nM] | ΔTm at 10 µM [2, 6] [°C] | ΔTm at 10 µM [2, 7] [°C] | SMILES | IC50 (NUGC3 p53 Y220C; NUGC3 p53 Y220C) [nM] | IC50 (NUGC3 p53 Y220C; NUGC3 cells) [nM]
1 | < 70 | > 3000 | > 3000 | > 1000 | ≥ 10000 | 5 to 10 |  |  |  |  |  |  |  | CNC(=O)c1ccc(NCC#Cc2nc3c(N[C@@H]4CCN(C)CC4(F)F)cccn3c2CC(F)(F)F)c(OC)c1 (single isomer, unassigned) [Example 37] | > 3000 | 
2 | < 70 | > 3000 | > 3000 | > 1000 | ≥ 10000 | 5 to 10 |  |  |  |  |  |  |  | CNC(=O)c1ccc(NCC#Cc2nc3c(N[C@H]4CCN(C)CC4(F)F)cccn3c2CC(F)(F)F)c(OC)c1 (single isomer, unassigned) [Example 38] | > 3000 | 
3 |  |  |  |  |  |  | < 750 | > 90 | < 750 | < 10 | ≥ 10000 | ≥ 10 |  | CNC(=O)c1ccc(OC[C@H](C)O)c(NCC#Cc2cc3c(N[C@@H]4CCN(C)C[C@@H]4F)nccn3c2SC(F)(F)F)c1 (single isomer, unassigned) [Example 355] |  | < 750
4 |  |  |  |  |  |  | < 750 | > 90 | < 750 | < 10 | ≥ 10000 | ≥ 10 |  | CNC(=O)c1ccc(OC[C@@H](C)O)c(NCC#Cc2cc3c(N[C@@H]4CCN(C)C[C@@H]4F)nccn3c2SC(F)(F)F)c1 (single isomer, unassigned) [Example 356] |  | < 750
5 | 70 to 80 | > 3000 | > 3000 | 10 to 100 | ≥ 10000 | 5 to 10 |  |  |  |  |  |  | 5 to 10 | CNC(=O)c1ccc(NCC#Cc2nc3c(N[C@H]4CCc5ncnn5C4)cccn3c2SC(F)(F)F)c(OC)c1 (stereo in doubt) [Example 189] | > 3000 | 
6 | > 90 | < 750 | < 750 | < 10 | ≥ 10000 | ≥ 10 |  |  |  |  |  |  | 5 to 10 | CNC(=O)c1ccc(NCC#Cc2nc3c(N[C@@H]4CCc5ncnn5C4)cccn3c2SC(F)(F)F)c(OC)c1 (stereo in doubt) [Example 190] | < 750 | 
7 | < 70 | > 3000 | 1500 to 3000 |  | < 5000 | 1 to 5 |  |  |  |  |  |  |  | COc1cc(S(C)(=O)=O)ccc1NCC#Cc1nc2c(NC3CCN(C)CC3)cc(-c3ccccc3)cn2c1CC(F)(F)F [Example 34, N-(2-{3-[(4-methanesulfonyl-2-methoxyphenyl)amino]prop-1-yn-1-yl}-6-phenyl-3-(2,2,2-trifluoroethyl)imidazo [1,2-a]pyridin-8-yl)-1-methylpiperidin-4-amine, formic acid salt] | 1500 to 3000 | 
8 | < 70 | > 3000 | > 3000 |  | ≥ 10000 | 1 to 5 |  |  |  |  |  |  |  | CNC(=O)c1ccc(NCC#Cc2nc3c(NC4CCN(C)CC4)cc(NC(C)=O)cn3c2CC(F)(F)F)c(OC)c1 [Example 41, 4-[(3-{6-acetamido-8-[(1-methylpiperidin-4-yl)amino]-3-(2,2,2-trifluoroethyl)imidazo[1,2-a]pyridin-2-yl}prop-2-yn-1-yl)amino]-3-methoxy-N-methylbenzamide] | > 3000 | 
9 | < 70 | > 3000 | > 3000 |  | ≥ 10000 | < 1 |  |  |  |  |  |  |  | C=CC(=O)Nc1cc(NC2CCN(C)CC2)c2nc(C#CCNc3ccc(C(=O)NC)cc3OC)c(CC(F)(F)F)n2c1 [Example 42, 3-methoxy-N-methyl-4-[(3-{8-[(1-methylpiperidin-4-yl)amino]-6-(prop-2-enamido)-3-(2,2,2-trifluoroethyl)imidazo[1,2-a]pyridin-2-yl}prop-2-yn-1-yl)amino]benzamide] | > 3000 | 
10 | < 70 | > 3000 | > 3000 |  | ≥ 10000 | 1 to 5 |  |  |  |  |  |  |  | CNC(=O)c1ccc(NCC#Cc2nc3c(NC4CCN(C)CC4)cc(NC(=O)C(F)Cl)cn3c2CC(F)(F)F)c(OC)c1 (centres unmarked) [Example 43, 4-((3-[6-(2-chloro-2-fluoroacetamido)-8-[(1-methylpiperidin-4-yl)amino]-3-(2,2,2-trifluoroethyl)imidazo[1,2-a]pyridin-2-yl]prop-2-yn-1-ylamino)-3-methoxy-N-methylbenzamide, formic acid salt] | > 3000 | 
11 | < 70 | > 3000 | > 3000 |  | ≥ 10000 | 1 to 5 |  |  |  |  |  |  |  | CNC(=O)c1ccc(NCC#Cc2nc3c(NC4CCN(C)CC4)cc(NC(=O)OC)cn3c2CC(F)(F)F)c(OC)c1 [Example 45, methyl N-[2-(3-{[2-methoxy-4-(methylcarbamoyl)phenyl]amino}prop-1-yn-1-yl)-8-[(1-methylpiperidin-4-yl)amino]-3-(2,2,2-trifluoroethyl)imidazo[1,2-a]pyridin-6-yl]carbamate] | > 3000 | 
12 | < 70 | > 3000 | > 3000 |  | ≥ 10000 | 1 to 5 |  |  |  |  |  |  |  | CN1CC[C@@H](Nc2cccn3c(CC(F)(F)F)c(C#CCN)nc23)[C@@H](F)C1 [Example 75, (3S,4R)—N-[2-(3-aminoprop-1-yn-1-yl)-3-(2,2,2-trifluoroethyl)imidazo[1,2-a]pyridin-8-yl]-3-fluoro-1-methylpiperidin-4-amine] | > 3000 | 
13 | < 70 | > 3000 | > 3000 |  | ≥ 10000 | 1 to 5 |  |  |  |  |  |  |  | C=C(F)C(=O)Nc1cc(NC2CCN(C)CC2)c2nc(C#CCNc3ccc(C(=O)NC)cc3OC)c(CC(F)(F)F)n2c1 [Example 90, 4-({3-[6-(2-fluoroprop-2-enamido)-8-[(1-methylpiperidin-4-yl)amino]-3-(2,2,2-trifluoroethyl)imidazo[1,2-a]pyridin-2-yl]prop-2-yn-1-yl}amino)-3-methoxy-N-methylbenzamide] | > 3000 | 
14 | < 70 | > 3000 | > 3000 |  | ≥ 10000 | ≥ 10 |  |  |  |  |  |  |  | CNC(=O)c1ccc(NCC#Cc2nc3c(NC4CCN(C)CC4)cc(NC(=O)CCl)cn3c2CC(F)(F)F)c(OC)c1 [Example 91] | > 3000 | 
15 | 80 to 90 | 750 to 1500 | 750 to 1500 |  | 5000 to 8000 | ≥ 10 |  |  |  |  |  |  |  | CNC(=O)c1ccc(NCC#Cc2nc3c(N[C@@H]4CCN(C)C[C@@H]4F)cc(F)cn3c2CC(F)(F)F)c(OC)c1 [Example 99, 4-{[3-(6-fluoro-8-{[(3S,4R)-3-fluoro-1-methylpiperidin-4-yl]amino}-3-(2,2,2-trifluoroethyl)imidazo[1,2-a]pyridin-2-yl)prop-2-yn-1-yl]amino}-3-methoxy-N-methylbenzamide, formic acid salt] | 750 to 1500 | 
16 | 80 to 90 | < 750 | < 750 |  | ≥ 10000 |  |  |  |  |  |  |  | ≥ 10 | COc1cc(P(C)(C)=O)ccc1NCC#Cc1cc2c(N[C@@H]3CCN(C)C[C@@H]3F)nccn2c1SC(F)(F)F [Example 185, (3S,4R)—N-[7-(3-{[4-(dimethylphosphoryl)-2-methoxyphenyl]amino}prop-1-yn-1-yl)-6-[(trifluoromethyl)sulfanyl]pyrrolo[1,2-a]pyrazin-1-yl]-3-fluoro-1-methylpiperidin-4-amine; formic acid] | < 750 | 
